Columns and labels:
N2a cells = experiment: Neurite Length Assay (N2a, cell assay); format: cell-based; settings: Mus musculus, neurite retraction induced by 5 uM LPA
Method: Neurite Length Assay (N2a, Cell Assay).
N2a cells are maintained in DMEM/FBS at 37 C and 5% CO2. For the experiment the cells were plated on a poly-D-lysine coated 96-well tissue culture plate. After attachment, cell differentiation was induced for 2 days by addition of 10 uM retinoic acid. Cells were treated for 1 h with a dilution of compounds in 0.3% DMSO final concentration before neurite retraction was induced by 5 uM LPA. Cells were stained for tubulin and nuclei and images were acquired on a INCell 1000 workstation. Images were analyzed using the developer toolbox and neurite length was quantitated. […] For example, the IC50 of Example 169 is 4 nM.

Rhok2 = Rhok2 (Homo sapiens, UniProt O75116); experiment: Enzymatic Rho kinase assay (Kinase-Glo luminescence, S6 peptide substrate); format: biochemical; settings: Rhok2 enzyme, 2 hours at 25 degrees Celsius
Method: Enzymatic Rho kinase (ROCK I and ROCK II) Assays.
The assay is based on ability of Rhok2 to phosphorylate a specific peptide sequence derived from its substrate—ribosomal protein S6 (amino acid residues 229-239, (LCB-[…]-NH2)). Rhok2 uses ATP as a donor of phosphate for the phosphorylation of the substrate, which leads to the depletion of ATP in the reaction mix. An assay kit (“Kinase-Glo”, Promega) was used to quantify enzyme activity. Using this kit, residual amounts of ATP are measured by a secondary enzymatic reaction, through which luciferase utilizes the remaining ATP to produce luminescence. Luminescent signal is directly proportional to ATP concentration and inversely proportional to Rhok2 activity.
This dose response assay was conducted in 1536 well plate format. Each concentration was tested nominally in triplicate. […] Plates were incubated for 10 minutes and luminescence was read on Perkin-Elmer Viewlux for 60 seconds. […] The percent inhibition for each well has been calculated as follows: % inhibition=(test compound−median_negative_control)/(median_positive_control−median_negative_control)*100 where the positive control is Y-27632 (13 micromolar) and negative control is DMSO only. […]

smooth muscle cells = experiment: Myosin Light Chain Double Phosphorylation Assay (ppMLC, cell assay); format: cell-based; settings: serum starved smooth muscle cells, compound 1 h, LPA 30 min
Method: Myosin Light Chain Double Phosphorylation Assays (ppMLC, cell assay).
Serum starved smooth muscle cells were incubated with compound for 1 h before induction of myosin light chain phosphorylation by LPA for 30 min. Cells were washed and fixed before staining for phosphorylated myosin light chain and DNA. Phosphorylation status was quantitated with the LI-COR Odyssey Imager. […] For example, the IC50 of Example 169 is 6 nM.

Rhok2, sequence (O75116 whole entry): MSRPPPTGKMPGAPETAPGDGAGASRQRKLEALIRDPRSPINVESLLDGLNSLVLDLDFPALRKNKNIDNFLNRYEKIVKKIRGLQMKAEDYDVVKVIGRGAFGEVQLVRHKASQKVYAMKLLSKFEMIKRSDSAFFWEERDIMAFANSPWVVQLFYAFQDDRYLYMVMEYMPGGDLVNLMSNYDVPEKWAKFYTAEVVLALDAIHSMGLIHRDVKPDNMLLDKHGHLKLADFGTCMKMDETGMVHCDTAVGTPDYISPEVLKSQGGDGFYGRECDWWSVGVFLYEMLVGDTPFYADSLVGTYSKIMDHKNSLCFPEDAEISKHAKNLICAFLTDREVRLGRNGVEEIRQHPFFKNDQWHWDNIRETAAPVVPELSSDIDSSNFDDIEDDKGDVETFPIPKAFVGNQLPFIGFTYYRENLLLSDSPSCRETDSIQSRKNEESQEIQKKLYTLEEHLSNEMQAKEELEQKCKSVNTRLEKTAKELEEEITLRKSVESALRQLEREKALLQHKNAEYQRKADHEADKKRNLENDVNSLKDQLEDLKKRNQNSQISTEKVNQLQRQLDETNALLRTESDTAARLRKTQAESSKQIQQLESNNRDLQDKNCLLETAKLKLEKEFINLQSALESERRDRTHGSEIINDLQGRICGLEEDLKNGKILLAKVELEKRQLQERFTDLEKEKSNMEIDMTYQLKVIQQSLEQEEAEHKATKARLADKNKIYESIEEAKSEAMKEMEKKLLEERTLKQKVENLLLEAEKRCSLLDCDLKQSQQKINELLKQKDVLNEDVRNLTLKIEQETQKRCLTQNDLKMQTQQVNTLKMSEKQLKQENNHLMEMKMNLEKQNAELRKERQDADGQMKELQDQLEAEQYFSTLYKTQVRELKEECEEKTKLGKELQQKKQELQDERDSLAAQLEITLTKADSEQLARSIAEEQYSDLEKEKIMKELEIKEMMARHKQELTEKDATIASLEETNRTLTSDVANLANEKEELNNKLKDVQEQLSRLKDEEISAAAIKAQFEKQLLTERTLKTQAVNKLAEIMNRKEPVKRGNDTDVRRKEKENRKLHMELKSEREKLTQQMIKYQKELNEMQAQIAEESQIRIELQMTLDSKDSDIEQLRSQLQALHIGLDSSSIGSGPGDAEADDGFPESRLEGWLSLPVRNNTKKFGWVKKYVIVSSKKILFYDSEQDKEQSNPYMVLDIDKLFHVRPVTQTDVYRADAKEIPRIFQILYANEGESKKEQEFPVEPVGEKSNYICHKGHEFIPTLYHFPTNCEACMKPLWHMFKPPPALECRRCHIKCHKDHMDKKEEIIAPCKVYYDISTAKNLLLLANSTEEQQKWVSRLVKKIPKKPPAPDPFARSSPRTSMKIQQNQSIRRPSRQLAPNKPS

IC50 (N2a cells): 4 nM | IC50 (Rhok2): 6 nM | IC50 (smooth muscle cells): 6 nM
Structure (SMILES): COc1ccc2c(c1)CC(c1nc3cc(-c4ccncc4)cc(F)c3[nH]1)CO2 (stereo not drawn) [Example 169, 7-fluoro-2-(6-methoxychroman-3-yl)-5-(pyridin-4-yl)-1H-benzo[d]imidazole]

From patent US20110052562A1, “BENZIMIDAZOLES AND ANALOGS AS RHO KINASE INHIBITORS” (The Scripps Research Institute, priority 2007, published 2011)
